Data set [1] can be described thus: Stability in mouse liver microsomes assessed as parent compound remaining at 0.5 uM after 10 mins by high throughput assay. It is filed as ADME, microsome. To be noted: read-out: Stability. Background: Liver microsomes are vesicles of endoplasmic reticulum, rich in cytochrome P450 enzymes.
The nature of data set [2]: Drug uptake in KLH Balb/c mouse model at 0.6 mg/kg, po after 7 hrs. Format: ADME, organism-based. To be noted: in vivo, read-out: Drug uptake.
A short description of data set [3]: Drug uptake in Balb/c mouse KLH model at 0.6 mg/kg, po after 24 hrs. It is filed as ADME, organism-based. To be noted: in vivo, read-out: Drug uptake.
Data set [4] is described as follows: Drug uptake in Balb/c mouse KLH model at 3 mg/kg, po after 7 hrs. Format: ADME, organism-based. To be noted: in vivo, read-out: Drug uptake.
Data set [5] can be described thus: Drug uptake in Balb/c mouse KLH model at 3 mg/kg, po after 24 hrs. It is filed as ADME, organism-based. To be noted: in vivo, read-out: Drug uptake.
Data set [6] in a line: Drug uptake in Balb/c mouse KLH model at 15 mg/kg, po after 7 hrs. It is filed as ADME, organism-based. To be noted: in vivo, read-out: Drug uptake.
A short description of data set [7]: Drug uptake in Balb/c mouse KLH model at 15 mg/kg, po after 24 hrs. It is filed as ADME, organism-based. As to conditions: in vivo, read-out: Drug uptake.
A short description of data set [8]: AUC in BALB/c mouse up to 300 mg/kg, qd measured on day 4. It is filed as ADME, organism-based. To be noted: in vivo.
A short description of data set [9]: Cmax in BALB/c mouse up to 300 mg/kg, qd measured on day 4. Format: ADME, organism-based. More on the design: dose 300 mg/kg. As to conditions: in vivo.

As usually defined, the AUC is the area under the concentration-time curve, a measure of exposure. The low end stands for less exposure, the high end for more exposure. The term Cmax denotes the highest concentration seen after dosing.

Turning to `CC(=O)N1C[C@@H](C)N(c2cccc(-c3cc(-c4ccnn4C4CCOCC4)c4c(N)ncnn34)c2)[C@@H](C)C1`, the remaining at 10 min, 0.5 µM in [1] was 54%. The concentration at 7 h in data set [2] is under 6.4 nM; in data set [4], 24.9 nM; in data set [6], 97.8 nM. The values for the concentration at 24 h in [3], in [5] and in data set [7] were under 5.6 nM, under 3.9 nM and under 7 nM, respectively. The molecule also yielded an AUC in data set [8] of at most 520 µM·h. This molecule also registered a maximum concentration (Cmax) in [9] of at most 55000 nM.
As for `COc1cc(-c2cc(-c3ccnn3C3CCOCC3)c3c(N)ncnn23)cc(N2[C@H](C)CN(C(C)=O)C[C@@H]2C)c1`, the remaining at 10 min, 0.5 µM in data set [1] was 14%.
The same measure, in the same setting: to `CC(=O)N1C[C@@H](C)N(c2cncc(-c3cc(-c4ccnn4C4CCOCC4)c4c(N)ncnn34)c2)[C@@H](C)C1` belongs 48%.
In the case of `CC(=O)N1C[C@@H](C)N(c2cc(F)cc(-c3cc(-c4ccnn4C4CCOCC4)c4c(N)ncnn34)c2)[C@@H](C)C1`, in [1], the remaining at 10 min, 0.5 µM worked out at 35%.
